Data from PMC7290441 (Viruses, 2020).
Where two headings read alike, the source gives them in different places.

Key:
in vitro = conditions: dog
[1] = tested on: A/Puerto Rico/8/1934 (H1N1); test: microbe, parasite or virus in culture; conditions: Influenza A virus, H1N1, MDCK, 72 h, read-out: EC50 against A/Puerto Rico/8/1934 (H1N1)
[2] = tested on: A/Hong Kong/8/1968 (H3N2); test: microbe, parasite or virus in culture; conditions: Influenza A virus, H3N2, MDCK, 72 h, read-out: EC50 against A/Hong Kong/8/1968 (H3N2)
B/Lee/40 [3] = test: microbe, parasite or virus in culture; conditions: Influenza B virus, MDCK, 72 h, read-out: EC50 against B/Lee/40
[4] = tested on: A/Hong Kong/8/1968 (H3N2)
[5] = tested on: A/Brisbane/59/2007 (H1N1)
[6] = tested on: A/California/7/2009 (H1N1); test: microbe, parasite or virus in culture; conditions: Influenza A virus, H1N1, MDCK, 72 h, read-out: EC50 against A/California/7/2009 (H1N1)
[7] = tested on: A/Brisbane/59/2007 (H1N1); test: microbe, parasite or virus in culture; conditions: Influenza A virus, H1N1, MDCK, 72 h, read-out: EC50 against A/Brisbane/59/2007 (H1N1)
A/Seoul/11/1988 (H3N2) [8] = test: microbe, parasite or virus in culture; conditions: Influenza A virus, H3N2, MDCK, 72 h, read-out: EC50 against A/Seoul/11/1988 (H3N2)
A/Perth/16/2009 (H3N2) [9] = test: microbe, parasite or virus in culture; conditions: Influenza A virus, H3N2, MDCK, 72 h, read-out: EC50 against A/Perth/16/2009 (H3N2)
[10] = tested on: A/Brisbane/10/2007 (H3N2); test: microbe, parasite or virus in culture; conditions: Influenza A virus, H3N2, MDCK, 72 h, read-out: EC50 against A/Brisbane/10/2007 (H3N2)
[11] = tested on: A/Victoria/361/2011-like (H3N2); test: microbe, parasite or virus in culture; conditions: Influenza A virus, H3N2, MDCK, 72 h, read-out: EC50 against A/Victoria/361/2011-like (H3N2)
B/Brisbane/60/2008 [12] = test: microbe, parasite or virus in culture; conditions: Influenza B virus, MDCK, 72 h, read-out: EC50 against B/Brisbane/60/2008
[13] = Cytotoxicity to mock-infected MDCK cells (MTT); conditions: dog
[14] = tested on: PR8 virus (viral proteins NP, HA, M1); type: cell-based, influenza A virus
[15] = tested on: A/Puerto Rico/8/1934 (H1N1)
B/Lee/40 [16] = tested on: B/Lee/40
[17] = tested on: A/California/7/2009 (H1N1)
A/Seoul/11/1988 (H3N2) [18] = tested on: A/Seoul/11/1988 (H3N2)
A/Perth/16/2009 (H3N2) [19] = tested on: A/Perth/16/2009 (H3N2)
[20] = tested on: A/Brisbane/10/2007 (H3N2)
[21] = tested on: A/Victoria/361/2011-like (H3N2)
B/Brisbane/60/2008 [22] = tested on: B/Brisbane/60/2008

Row | SMILES | CC50 (in vitro) [µM] | EC50 [1] [µM] | EC50 [2] [µM] | EC50 (B/Lee/40 [3]) [µM] | S.I. (CC50/EC50), A/Hong Kong/8/1968 (H3N2) [4] | S.I. (CC50/EC50), A/Brisbane/59/2007 (H1N1) ([5]; MDCK cells) | EC50 [6] [µM] | EC50 [7] [µM] | EC50 (A/Seoul/11/1988 (H3N2) [8]) [µM] | EC50 (A/Perth/16/2009 (H3N2) [9]) [µM] | EC50 [10] [µM] | EC50 [11] [µM] | EC50 (B/Brisbane/60/2008 [12]) [µM] | CC50 at 3 days [13] [µM] | S.I. (CC50/EC50), A/Puerto Rico/8/1934 (H1N1) ([15]; MDCK cells) | S.I. (CC50/EC50), B/Lee/40 (B/Lee/40 [16]) | S.I. (CC50/EC50), A/California/7/2009 (H1N1) ([17]; MDCK cells) | S.I. (CC50/EC50), A/Brisbane/10/2007 (H3N2) [20] | also measured
1 | CC(Cc1ccc(O)cc1)NCC(O)c1cc(O)cc(O)c1 (centres unmarked) [Fenoterol, fenoterol] | > 900 | > 100 | > 100 | > 100 |  |  |  |  |  |  |  |  |  |  |  |  |  |  | 
2 | OC(CN1CCC(Cc2ccc(F)cc2)CC1)c1ccc(Cl)cc1 (centres unmarked) [Eliprodil, eliprodil] |  | > 100 | > 44 | > 100 | (>15.5) | (>16.9) | > 100 | 53.1 ± 0.3 | > 100 | > 100 | > 100 | > 100 | > 100 | > 900 |  |  |  |  | EC50 ([4]; read-out: EC50 against A/Hong Kong/8/1968 (H3N2)): 58.1 ± 6.4 µM
3 | CCC(CC)O[C@@H]1C=C(C(=O)O)C[C@H](N)[C@H]1NC(C)=O [OSV-C, oseltamivir carboxylate] |  | 0.04 ± 0.01 | < 0.005 | 0.8 ± 0.03 | (>180,000) | (>58,065) | 0.02 | 0.02 | < 0.005 | 0.03 ± 0.02 | 0.53 ± 0.16 | < 0.005 | 53.1 ± 25.2 |  | (>25,714) | (>1125) | (>58,065) | (>1714) | viral proteins NP, HA and M1 (western blot) ([14]; […], nylidrin 100 μM, OSV-C 10 μM, RBV 100 μM): not detected; S.I. (CC50/EC50), A/Seoul/11/1988 (H3N2) (A/Seoul/11/1988 (H3N2) [18]; MDCK cells): (>180,000); S.I. (CC50/EC50), A/Perth/16/2009 (H3N2) (A/Perth/16/2009 (H3N2) [19]; MDCK cells): (>30,000); S.I. (CC50/EC50), A/Victoria/361/2011-like (H3N2) ([21]; MDCK cells): (>180,000); S.I. (CC50/EC50), B/Brisbane/60/2008 (B/Brisbane/60/2008 [22]; MDCK cells): (>17.0); CC50 at 3 days (in vitro): > 900 µM
4 | NC(=O)c1ncn([C@@H]2O[C@H](CO)[C@@H](O)[C@H]2O)n1 [RBV, ribavirin] |  | 18.4 ± 3.4 | 15.7 ± 2.7 | 13.8 ± 0.2 | (>57.5) |  | 52.5 ± 1.5 | 24.1 ± 0.5 | 10.5 ± 4.2 | 33.8 ± 11.6 | 12.6 ± 6.4 | 33.4 ± 8.8 | 25.6 ± 0.3 | > 900 |  | (>65.5) |  | (>71.4) | viral proteins NP, HA and M1 (western blot) [14]: not detected; S.I. (CC50/EC50), A/Puerto Rico/8/1934 (H1N1) [15]: (>48.9); S.I. (CC50/EC50), A/California/7/2009 (H1N1) [17]: (>17.2); S.I. (CC50/EC50), A/Brisbane/59/2007 (H1N1) [5]: (>37.3); S.I. (CC50/EC50), A/Seoul/11/1988 (H3N2) (A/Seoul/11/1988 (H3N2) [18]): (>52.3); S.I. (CC50/EC50), A/Perth/16/2009 (H3N2) (A/Perth/16/2009 (H3N2) [19]): (>26.6); S.I. (CC50/EC50), A/Victoria/361/2011-like (H3N2) [21]: (>16.4); S.I. (CC50/EC50), B/Brisbane/60/2008 (B/Brisbane/60/2008 [22]): (>35.2)
5 | CC(C)(C)NCC(O)c1cc(Cl)c(N)c(Cl)c1 (centres unmarked) [Clenbuterol, clenbuterol] | > 900 | 9.4 ± 4.6 | > 100 | > 100 |  | (>69.8) | 13.7 ± 3.6 | 12.9 ± 0.3 | > 100 | > 100 | > 100 | > 100 | > 100 |  | (>96.3) |  | (>65.9) |  | 
6 | CC(NCCc1ccc(O)cc1)C(O)c1ccc(O)cc1 (centres unmarked) [Ritodrine, ritodrine] |  | > 100 | > 100 | > 100 |  |  |  |  |  |  |  |  |  | > 900 |  |  |  |  | 
